Assay results from PubChem BioAssay (NCI).
Several values for one entry are separate records, joined by “and”; a condition that tells them apart may be missing. Equal entries are not always repeated.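 Method: 48-hour compound exposure of cells in 96-well plates, five concentrations, linear interpolation of endpoints. Abbreviation: GI50, concentration required for 50% inhibition of growth. TGI is the concentration that stops growth completely.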

What was measured:
Experiment in all cases: NCI tumour cell line growth inhibition, 48 h
SF-295 CNS = tested on: SF-295 CNS
K-562 leukemia = tested on: K-562 leukemia
SN12K1 renal = tested on: SN12K1 renal
HCT-116 colon = tested on: HCT-116 colon
HCT-15 colon = tested on: HCT-15 colon
HL-60(TB) leukemia = tested on: HL-60(TB) leukemia
DLD-1 colon = tested on: DLD-1 colon
NCI-H460 lung = tested on: NCI-H460 lung
MCF7 breast = tested on: MCF7 breast
SNB-19 CNS = tested on: SNB-19 CNS
SR leukemia = tested on: SR leukemia
A498 renal = tested on: A498 renal
NCI-H522 lung = tested on: NCI-H522 lung
TK-10 renal = tested on: TK-10 renal
NCI-H23 lung = tested on: NCI-H23 lung
ACHN renal = tested on: ACHN renal
XF 498 CNS = tested on: XF 498 CNS
HCC-2998 colon = tested on: HCC-2998 colon
P388/ADR leukemia = tested on: P388/ADR leukemia
P388 leukemia = tested on: P388 leukemia
HOP-18 NSCLC = tested on: HOP-18 NSCLC
UACC-257 melanoma = tested on: UACC-257 melanoma
SNB-78 CNS = tested on: SNB-78 CNS
HOP-92 NSCLC = tested on: HOP-92 NSCLC
SF-539 CNS = tested on: SF-539 CNS
HOP-62 NSCLC = tested on: HOP-62 NSCLC
RXF 393 renal = tested on: RXF 393 renal
786-0 renal = tested on: 786-0 renal
SF-268 CNS = tested on: SF-268 CNS
OVCAR-8 ovarian = tested on: OVCAR-8 ovarian
DMS 114 small cell lung = tested on: DMS 114 small cell lung
U251 CNS = tested on: U251 CNS
SNB-75 CNS = tested on: SNB-75 CNS
SK-MEL-5 melanoma = tested on: SK-MEL-5 melanoma
HS 578T breast = tested on: HS 578T breast
MDA-MB-231 breast = tested on: MDA-MB-231 breast
SK-OV-3 ovarian = tested on: SK-OV-3 ovarian
KM20L2 colon = tested on: KM20L2 colon
OVCAR-4 ovarian = tested on: OVCAR-4 ovarian
IGROV1 ovarian = tested on: IGROV1 ovarian
OVCAR-3 ovarian = tested on: OVCAR-3 ovarian
RPMI-8226 leukemia = tested on: RPMI-8226 leukemia
DMS 273 small cell lung = tested on: DMS 273 small cell lung
CCRF-CEM leukemia = tested on: CCRF-CEM leukemia
RXF-631 renal = tested on: RXF-631 renal
SW-620 colon = tested on: SW-620 colon
NCI-H226 lung = tested on: NCI-H226 lung
MALME-3M melanoma = tested on: MALME-3M melanoma
HT29 colon = tested on: HT29 colon
UACC-62 melanoma = tested on: UACC-62 melanoma
OVCAR-5 ovarian = tested on: OVCAR-5 ovarian
SN12C renal = tested on: SN12C renal
SK-MEL-28 melanoma = tested on: SK-MEL-28 melanoma
SK-MEL-2 melanoma = tested on: SK-MEL-2 melanoma
KM12 colon = tested on: KM12 colon
CAKI-1 renal = tested on: CAKI-1 renal
M19-MEL melanoma = tested on: M19-MEL melanoma
M14 melanoma = tested on: M14 melanoma
LOX IMVI melanoma = tested on: LOX IMVI melanoma
UO-31 renal = tested on: UO-31 renal
MOLT-4 leukemia = tested on: MOLT-4 leukemia
COLO 205 colon = tested on: COLO 205 colon
EKVX NSCLC = tested on: EKVX NSCLC
LXFL 529 NSCLC = tested on: LXFL 529 NSCLC
A549 NSCLC = tested on: A549 NSCLC

## COc1ccc2cc1Oc1ccc(cc1)C[C@H]1c3cc(c(OC)cc3CCN1C)Oc1c(OC)c(OC)cc3c1[C@H](C2)N(C)CC3
SF-295 CNS
  GI50: 12.8 µM
  TGI: 16.3 µM and 28.9 µM and > 100 µM
K-562 leukemia
  TGI: 11.1 µM and > 100 µM
SN12K1 renal
  TGI: 14 µM
HCT-116 colon
  GI50: 3.8 µM
  TGI: 11.1 µM and 14.9 µM and > 100 µM
HCT-15 colon
  GI50: 5.99 µM
  TGI: 16.5 µM and 18.5 µM
HL-60(TB) leukemia
  TGI: 16.1 µM and 23.8 µM and > 100 µM
DLD-1 colon
  TGI: 20.5 µM
NCI-H460 lung
  TGI: 14.5 µM
MCF7 breast
  GI50: 5.27 µM
  TGI: 14 µM and 17.8 µM and > 100 µM
SNB-19 CNS
  GI50: 7.55 µM
  TGI: 13 µM and 20.1 µM and 60.6 µM
SR leukemia
  GI50: 0.0282 µM
A498 renal
  GI50: 5.98 µM
  TGI: 13.2 µM and 19.2 µM and > 100 µM
NCI-H522 lung
  GI50: 3.27 µM
  TGI: 14.9 µM and 12.2 µM and > 100 µM
TK-10 renal
  GI50: 12.7 µM
  TGI: 15.6 µM and 25.2 µM and 53.5 µM
NCI-H23 lung
  TGI: 20.5 µM and 27.4 µM and > 100 µM
ACHN renal
  TGI: 15.4 µM and 27.2 µM and 40 µM
XF 498 CNS
  TGI: 18.1 µM
HCC-2998 colon
  TGI: 8.65 µM
P388/ADR leukemia
  TGI: 14.9 µM
P388 leukemia
  TGI: 9.38 µM
HOP-18 NSCLC
  TGI: 20.3 µM
UACC-257 melanoma
  GI50: 4.06 µM
  TGI: 11.4 µM and 14.6 µM and > 100 µM
SNB-78 CNS
  TGI: 21.1 µM
HOP-92 NSCLC
  TGI: 11 µM and 26 µM and > 100 µM
SF-539 CNS
  GI50: 2.03 µM
HOP-62 NSCLC
  GI50: 15.1 µM
  TGI: 15.1 µM and 34.2 µM
RXF 393 renal
  GI50: 1.97 µM
  TGI: 12.1 µM and 6.61 µM
786-0 renal
  GI50: 5.1 µM
  TGI: 12.4 µM and 18 µM and > 100 µM
SF-268 CNS
  GI50: 12.6 µM
  TGI: 16.5 µM and 25.1 µM and > 100 µM
OVCAR-8 ovarian
  GI50: 6.53 µM
  TGI: 16.3 µM and 19.2 µM and > 100 µM
DMS 114 small cell lung
  TGI: 15.3 µM
U251 CNS
  GI50: 3.92 µM
  TGI: 15.1 µM and 13.5 µM and > 100 µM
SNB-75 CNS
  GI50: 2.77 µM
  TGI: 13.4 µM and 10.3 µM and > 100 µM
SK-MEL-5 melanoma
  GI50: 3.94 µM
  TGI: 11.8 µM and 13.8 µM and > 100 µM
HS 578T breast
  GI50: 13.1 µM
  TGI: 19.1 µM and 28.2 µM and > 100 µM
MDA-MB-231 breast
  GI50: 2.19 µM
SK-OV-3 ovarian
  GI50: 17.6 µM
  TGI: 15.3 µM and 34 µM and > 100 µM
KM20L2 colon
  TGI: 10.7 µM
OVCAR-4 ovarian
  GI50: 12.4 µM
  TGI: 11.1 µM and 28.5 µM
IGROV1 ovarian
  GI50: 14.5 µM
  TGI: 19.6 µM and 27.8 µM and > 100 µM
OVCAR-3 ovarian
  GI50: 11.8 µM
  TGI: 15.7 µM and 28.7 µM
RPMI-8226 leukemia
  GI50: 1.92 µM
  TGI: 20.3 µM and 5.21 µM
DMS 273 small cell lung
  TGI: 13.2 µM

## CCOC(=O)C1=C(C)N(c2ccccc2)C2=C(C(=O)N(c3ccccc3)C2c2ccccc2)C1c1ccccc1 (configuration not stated)
SF-295 CNS
  TGI: > 100 µM
K-562 leukemia
  TGI: > 100 µM
CCRF-CEM leukemia
  TGI: > 100 µM
HCT-116 colon
  TGI: > 100 µM
HL-60(TB) leukemia
  TGI: > 100 µM
DLD-1 colon
  TGI: > 100 µM
RXF-631 renal
  TGI: > 100 µM
NCI-H460 lung
  TGI: > 100 µM
SW-620 colon
  TGI: > 100 µM
NCI-H226 lung
  TGI: > 100 µM
SNB-19 CNS
  TGI: > 100 µM
MALME-3M melanoma
  TGI: > 100 µM
HT29 colon
  TGI: > 100 µM
SR leukemia
  TGI: > 100 µM
NCI-H522 lung
  TGI: > 100 µM
TK-10 renal
  TGI: > 100 µM
NCI-H23 lung
  TGI: > 100 µM
ACHN renal
  TGI: > 100 µM
UACC-62 melanoma
  TGI: > 100 µM
XF 498 CNS
  TGI: > 100 µM
HCC-2998 colon
  TGI: > 100 µM
HOP-18 NSCLC
  TGI: > 100 µM
OVCAR-5 ovarian
  TGI: > 100 µM
SN12C renal
  TGI: > 100 µM
UACC-257 melanoma
  TGI: > 100 µM
SNB-78 CNS
  TGI: > 100 µM
HOP-92 NSCLC
  TGI: > 100 µM
SK-MEL-28 melanoma
  TGI: > 100 µM
SK-MEL-2 melanoma
  TGI: > 100 µM
SF-539 CNS
  TGI: > 100 µM
HOP-62 NSCLC
  TGI: > 100 µM
KM12 colon
  TGI: > 100 µM
RXF 393 renal
  TGI: > 100 µM
CAKI-1 renal
  TGI: > 100 µM
786-0 renal
  TGI: > 100 µM
SF-268 CNS
  TGI: > 100 µM
M19-MEL melanoma
  TGI: > 100 µM
OVCAR-8 ovarian
  TGI: > 100 µM
DMS 114 small cell lung
  TGI: > 100 µM
U251 CNS
  TGI: > 100 µM
M14 melanoma
  TGI: > 100 µM
LOX IMVI melanoma
  TGI: > 100 µM
SNB-75 CNS
  TGI: > 100 µM
SK-MEL-5 melanoma
  TGI: > 100 µM
UO-31 renal
  TGI: > 100 µM
MOLT-4 leukemia
  TGI: > 100 µM
SK-OV-3 ovarian
  TGI: > 100 µM
KM20L2 colon
  TGI: > 100 µM
COLO 205 colon
  TGI: > 100 µM
OVCAR-4 ovarian
  TGI: > 100 µM
EKVX NSCLC
  TGI: > 100 µM
IGROV1 ovarian
  TGI: > 100 µM
OVCAR-3 ovarian
  TGI: > 100 µM
RPMI-8226 leukemia
  TGI: > 100 µM
LXFL 529 NSCLC
  TGI: > 100 µM
DMS 273 small cell lung
  TGI: > 100 µM
A549 NSCLC
  TGI: > 100 µM

## CN(C)/C(=N/C(=S)Nc1ccccc1)SCc1ccccc1
SF-295 CNS
  TGI: > 100 µM
K-562 leukemia
  TGI: > 100 µM
CCRF-CEM leukemia
  TGI: > 100 µM
HCT-15 colon
  TGI: > 100 µM
HL-60(TB) leukemia
  TGI: 51.4 µM
DLD-1 colon
  TGI: > 100 µM
RXF-631 renal
  TGI: > 100 µM
SW-620 colon
  TGI: > 100 µM
NCI-H226 lung
  TGI: > 100 µM
SNB-19 CNS
  TGI: > 100 µM
MALME-3M melanoma
  TGI: > 100 µM
HT29 colon
  TGI: > 100 µM
A498 renal
  TGI: > 100 µM
NCI-H522 lung
  TGI: > 100 µM
TK-10 renal
  TGI: > 100 µM
NCI-H23 lung
  TGI: > 100 µM
ACHN renal
  TGI: > 100 µM
UACC-62 melanoma
  TGI: > 100 µM
XF 498 CNS
  TGI: > 100 µM
HCC-2998 colon
  TGI: > 100 µM
HOP-18 NSCLC
  TGI: > 100 µM
OVCAR-5 ovarian
  TGI: > 100 µM
SN12C renal
  TGI: > 100 µM
UACC-257 melanoma
  TGI: > 100 µM
SNB-78 CNS
  TGI: > 100 µM
SK-MEL-28 melanoma
  TGI: > 100 µM
SK-MEL-2 melanoma
  TGI: > 100 µM
SF-539 CNS
  TGI: > 100 µM
HOP-62 NSCLC
  TGI: > 100 µM
KM12 colon
  TGI: > 100 µM
RXF 393 renal
  TGI: > 100 µM
CAKI-1 renal
  TGI: > 100 µM
786-0 renal
  TGI: > 100 µM
SF-268 CNS
  TGI: > 100 µM
M19-MEL melanoma
  TGI: > 100 µM
OVCAR-8 ovarian
  TGI: > 100 µM
DMS 114 small cell lung
  TGI: > 100 µM
U251 CNS
  TGI: > 100 µM
M14 melanoma
  TGI: > 100 µM
LOX IMVI melanoma
  TGI: > 100 µM
SNB-75 CNS
  TGI: > 100 µM
SK-MEL-5 melanoma
  TGI: > 100 µM
UO-31 renal
  TGI: 95.8 µM
MOLT-4 leukemia
  TGI: > 100 µM
SK-OV-3 ovarian
  TGI: > 100 µM
COLO 205 colon
  TGI: > 100 µM
OVCAR-4 ovarian
  TGI: > 100 µM
EKVX NSCLC
  TGI: > 100 µM
IGROV1 ovarian
  TGI: > 100 µM
OVCAR-3 ovarian
  TGI: > 100 µM
RPMI-8226 leukemia
  TGI: > 100 µM
LXFL 529 NSCLC
  TGI: > 100 µM
DMS 273 small cell lung
  TGI: > 100 µM
A549 NSCLC
  TGI: > 100 µM
